For orientation: Km means the concentration of substrate that gives half-maximal velocity.

Results on 5 molecules are retold here after publication PMC8131106 (eLife, 2021).

The target in series [1] is T1, LeuT (Aquifex aeolicus, UniProt O67854).
T1 construct: gene snf; pET16b, C-terminal 8xHis tag removed with thrombin, expressed in E. coli C41/C43(DE3), purified in DDM then OG; Cys pairs with spin labels for DEER
Description: X-ray crystal structure, […] A. The following applies: Na+ bound, outward-facing occluded. The format is binding.

Series [2] concerns the target T2, LeuT (Aquifex aeolicus, UniProt O67854, R375A).
T2 construct: gene snf; pET16b, C-terminal 8xHis tag removed with thrombin, expressed in E. coli C41/C43(DE3), purified in DDM then OG; Cys pairs with spin labels for DEER
Description: X-ray crystal structure, […] A. The following applies: Na+ bound, outward-facing occluded. The format is binding.

The target in series [3] is T3, LeuT (Aquifex aeolicus, UniProt O67854, R375D).
T3 construct: gene snf; pET16b, C-terminal 8xHis tag removed with thrombin, expressed in E. coli C41/C43(DE3), purified in DDM then OG; Cys pairs with spin labels for DEER
Description: X-ray crystal structure, […] A. The class given is binding. Conditions: Na+ bound, outward-facing occluded.

The target of series [4] is T4, LeuT (Aquifex aeolicus, UniProt O67854, H7C/R86C/A309C, form not given).
T4 construct: gene snf; pET16b, C-terminal 8xHis tag removed with thrombin, expressed in E. coli C41/C43(DE3), purified in DDM then OG; Cys pairs with spin labels for DEER
As to the kind of experiment: DEER EPR distance distributions. The class given is binding. Conditions: […] NaCl, fourfold molar excess of Leu; each spin-label pair in its own construct (pair also printed as […]).

In series [5] the target is T5, LeuT (Aquifex aeolicus, UniProt O67854, R375D, form not given).
T5 construct: gene snf; pET16b, C-terminal 8xHis tag removed with thrombin, expressed in E. coli C41/C43(DE3), purified in DDM then OG; Cys pairs with spin labels for DEER
Description: DEER EPR distance distributions. The format is binding. Conditions: […] NaCl, fourfold molar excess of Leu; each spin-label pair in its own construct (pair also printed as […]).

The target of the next series is T6, dDAT (Drosophila melanogaster, UniProt Q7K4Y6).
T6 construct: gene DAT
Conditions: […] min, room temperature, labelled compound.

Substrate in series [6]: NCCc1ccc(O)c(O)c1
As to the kind of experiment: cells, lysate or membranes. Conditions: pH […]-7.[…] min, […] DA, labelled compound.

T6 sequence (Q7K4Y6 whole entry): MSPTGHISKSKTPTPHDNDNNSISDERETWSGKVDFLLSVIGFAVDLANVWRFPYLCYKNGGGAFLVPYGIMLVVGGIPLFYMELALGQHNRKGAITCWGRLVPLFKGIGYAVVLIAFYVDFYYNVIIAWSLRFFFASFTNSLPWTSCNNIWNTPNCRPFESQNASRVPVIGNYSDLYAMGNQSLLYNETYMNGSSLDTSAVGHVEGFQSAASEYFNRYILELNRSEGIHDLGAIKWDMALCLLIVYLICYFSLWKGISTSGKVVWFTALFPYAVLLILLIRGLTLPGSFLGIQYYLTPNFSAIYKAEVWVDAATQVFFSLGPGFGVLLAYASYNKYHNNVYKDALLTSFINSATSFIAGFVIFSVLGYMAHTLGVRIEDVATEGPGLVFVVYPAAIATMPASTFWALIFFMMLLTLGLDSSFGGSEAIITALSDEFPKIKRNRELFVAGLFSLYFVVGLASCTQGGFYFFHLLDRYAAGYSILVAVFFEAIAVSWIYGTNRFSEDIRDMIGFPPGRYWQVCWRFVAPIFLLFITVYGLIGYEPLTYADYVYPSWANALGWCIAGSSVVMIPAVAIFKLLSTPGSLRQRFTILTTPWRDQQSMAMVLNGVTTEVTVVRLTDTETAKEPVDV

For `C[C@H](N)C(=O)O` [L-Ala], the “X-ray crystal structure, 2.1 A” value on LeuT [1] is “L-Ala, Na1, and Na2 (purple spheres) could be modeled into their respective binding sites”; on LeuT [2], “LeuT WT, LeuT R375A, and LeuT R375D solved in the L-Ala and Na^+ bound OO conformation”. Further, the “X-ray crystal structure, 2.6 A” value on LeuT [3] was “LeuT WT, LeuT R375A, and LeuT R375D solved in the L-Ala and Na^+ bound OO conformation”.
In the case of `CC(C)C[C@H](N)C(=O)O` [Leu], the “DEER EPR distance distributions” value at LeuT [4] is “Leu binding to Na^+-bound LeuT restores the conformational preference to the OO form”; at LeuT [5] it was “Na^+/Leu resets the IC gate to the IO conformation”.
For `NCCc1ccc(O)c(O)c1` [dopamine], the “[3H]DA uptake, intact fly brains” value on dDAT was “uptake of [^3H]DA in hDAT WT Drosophila brains was not significantly different from that measured in dDAT”.

B1: hDAT (Homo sapiens) (protein)
chain: MSKSKCSVGLMSSVVAPAKEPNAVGPKEVELILVKEQNGVQLTSSTLTNPRQSPVEAQDRETWGKKIDFLLSVIGFAVDLANVWRFPYLCYKNGGGAFLVPYLLFMVIAGMPLFYMELALGQFNREGAAGVWKICPILKGVGFTVILISLYVGFFYNVIIAWALHYLFSSFTTELPWIHCNNSWNSPNCSDAHPGDSSGDSSGLNDTFGTTPAAEYFERGVLHLHQSHGIDDLGPPRWQLTACLVLVIVLLYFSLWKGVKTSGKVVWITATMPYVVLTALLLRGVTLPGAIDGIRAYLSVDFYRLCEASVWIDAATQVCFSLGVGFGVLIAFSSYNKFTNNCYRDAIVTTSINSLTSFSSGFVVFSFLGYMAQKHSVPIGDVAKDGPGLIFIIYPEAIATLPLSSAWAVVFFIMLLTLGIDSAMGGMESVITGLIDEFQLLHRHRELFTLFIVLATFLLSLFCVTNGGIYVFTLLDHFAAGTSILFGVLIEAIGVAWFYGVGQFSDDIQQMTGQRPSLYWRLCWKLVSPCFLLFVVVVSIVTFRPPHYGAYIFPDWANALGWVIATSSMAMVPIYAAYKFCSLPGSFREKLAYAIAPEKDRELVDRGEVRQFTLRHWLKV
With B1, the Michaelis constant (Km) in series [6] came to 5.7 ± 1.4 µM.

B2: hDAT (Homo sapiens; R445C) (protein)
chain: MSKSKCSVGLMSSVVAPAKEPNAVGPKEVELILVKEQNGVQLTSSTLTNPRQSPVEAQDRETWGKKIDFLLSVIGFAVDLANVWRFPYLCYKNGGGAFLVPYLLFMVIAGMPLFYMELALGQFNREGAAGVWKICPILKGVGFTVILISLYVGFFYNVIIAWALHYLFSSFTTELPWIHCNNSWNSPNCSDAHPGDSSGDSSGLNDTFGTTPAAEYFERGVLHLHQSHGIDDLGPPRWQLTACLVLVIVLLYFSLWKGVKTSGKVVWITATMPYVVLTALLLRGVTLPGAIDGIRAYLSVDFYRLCEASVWIDAATQVCFSLGVGFGVLIAFSSYNKFTNNCYRDAIVTTSINSLTSFSSGFVVFSFLGYMAQKHSVPIGDVAKDGPGLIFIIYPEAIATLPLSSAWAVVFFIMLLTLGIDSAMGGMESVITGLIDEFQLLHRHCELFTLFIVLATFLLSLFCVTNGGIYVFTLLDHFAAGTSILFGVLIEAIGVAWFYGVGQFSDDIQQMTGQRPSLYWRLCWKLVSPCFLLFVVVVSIVTFRPPHYGAYIFPDWANALGWVIATSSMAMVPIYAAYKFCSLPGSFREKLAYAIAPEKDRELVDRGEVRQFTLRHWLKV
For B2, the Km in series [6] was found to be 0.10 ± 0.07 µM.
